Source: patent US20160045463A1, “USE OF METALLOPROTEASE INHIBITORS IN THE TREATMENT OF POLYCYSTIC LIVER DISEASES” (UNIVERSIDAD DE SALAMANCA, priority 2012, published 2016)

What was measured:
[1] = cited from earlier work
PCK rats = test: Treatment of PCK rats with Marimastat for 8 weeks; type: in vivo, rat
Description: PCK rats, sold by the Charles River company, is a well characterised animal model of ARPKD and used for the study of liver and kidney cystogenesis (Mason S B, et al. The Anatomical Record: Advances in Integrative Anatomy and Evolutionary Biology 2010; 293:1279-1288). This colony of animals has a spontaneous orthologous mutation in the PKHD1 gene that causes them to develop liver and kidney symptoms similar to those of ARPKD patients. Thus, after 4 weeks of life, PCK rats, irrespective of sex, start to develop liver and kidney cystogenesis and fibrosis, which are clearly shown at 16 weeks of life. In addition, these animals also show an increase in serum values of creatinine, bilirubin, cholesterol, triglycerides and proteinuria (Mason S B, et al. The Anatomical Record: Advances in Integrative Anatomy and Evolutionary Biology 2010; 293:1279-1288). PCK rats were maintained on standard diet for the whole assay and all in vivo experimental procedures were approved by the Ethics Committee of the Instituto Biodonostia.
The group of control rats received the vehicle solution (i.e. distilled water) orally, 2 times a day (every ˜8-12 hours) and using the tube. Various biochemical markers were monitored in serum at the start and end of the study. Blood was extracted (500 μl through the tail vein) after anaesthetising the animal with isoflurane (inhalation anaesthesia, 2.5% in oxygen, with a flow rate of 0.3 L/min). After centrifuging the blood, various biochemical parameters were determined in the serum: alkaline phosphatase (ALP), transaminases (ALT, AST), bilirubin, biliary acids, creatinine, cholesterol, triglycerides and total proteins using a COBAS Integra400 Plus 174 analyser.
After sacrificing the animals, the liver and kidney were removed and weighed; next both types of tissue were sectioned with a scalpel and fixed with a solution of 10% formaldehyde, to be later included in paraffin. Slices of 5 μm thickness were made of each sample and stained with hematoxylin-eosin or picrosirius red.
The aim of hematoxylin-eosin staining is the determination of histological morphology. Thus the slices were incubated for 4 minutes with Harris hematoxylin (Merck) at room temperature. After incubation, the samples were washed with distilled water and stained with eosin (Merck) for 1 minute at room temperature. Next, the tissue slices were washed in running water for 5 minutes, dehydrated by immersion in solutions of increasing ethanol concentration (70%, 96%, 100% for 1 minute each) and finally incubated with xylol for 5 minutes. The samples were mounted with DePeX (Sigma) mounting medium for subsequent viewing in an optical microscope (Nikon Eclipse E800).
The purpose of picrosirius red staining is the determination of extracellular collagen in the tissue. When hydration was completed, the slices were stained with 0.2% phosphomolybdic acid (Panreac Química) for 2 minutes and washed with distilled water. Next, the samples were incubated with a solution of 0.1% picrosirius red f3B (Gibco) for 3 hours. Finally the samples were washed with a solution of 0.01 N HCl for 2 minutes; the tissue was then dehydrated and mounted as described in the previous section.
Additionally, the level of expression of various profibrotic hepatic markers [collagen 1a1 (Col1a1), beta transforming growth factor (TGFbeta), alpha actin of smooth muscle (alpha-Sma) and the growth factor of connective tissue (Ctgf)] and proinflammatory markers [IL-6, IL CXCL1 and IL1beta)] were analysed by RT-PCR in liver samples of control and PCK rats.

[2] = 0.2856 mg/kg/day; patients with colorectal cancer; cited from earlier work
[3] = at the time of sacrifice, n = 9
[4] = serum, at the time of sacrifice, n = 9

For `CNC(=O)[C@@H](NC(=O)[C@H](CC(C)C)[C@H](O)C(=O)NO)C(C)(C)C` [Marimastat, N-[2,2-dimethyl-1-(methylcarbamoyl)propyl]-2-[hydroxy-(hydroxycarbamoyl)methyl]-4-methyl-pentanamide], the oral bioavailability ([1]; compared with Batimastat) is given as “better oral bioavailability”, the toxicity ([1]; compared with Batimastat) is given as “less toxicity” and the elimination half-life ([1]; in vivo) is given as 8 to 10 h. For the same compound, the kidney cystogenesis (PCK rats; 8 weeks, FIG. 25) was “not affected”, the “cholangiocyte marker Ck19 expression at protein level (Western blot), hepatic samples” value (PCK rats; 8 weeks, p<0.001, FIG. 27A) was “down regulation” and the “collagen 1a1 (Col1a1) mRNA expression, hepatic samples” value (PCK rats; 8 weeks, p<0.05, FIG. 27B) was “down regulation”. For the same compound, the “mRNA levels of CXCL1 in liver samples” value (PCK rats; 8 weeks, p=0.08, FIG. 28B) was “almost statistically significant down regulation”, the “mRNA levels of IL6 in liver samples” value (PCK rats; 8 weeks, p=0.1, FIG. 28A) was “almost statistically significant down regulation” and the “collagen deposition in liver (picrosirius red)” value (PCK rats; 8 weeks, vs control PCK rats, FIG. 26) was “less collagen deposition”. For the same compound, the “WEIGHT Left kidney” value (PCK rats; [3]) was 2.40 ± 0.19, the “WEIGHT Liver” value (PCK rats; [3]) was 26.17 ± 2.98 and the “WEIGHT Rat” value (PCK rats; [3]) was 497 ± 12.24. The “WEIGHT Right kidney” value (PCK rats; [3]) was 2.36 ± 0.17, the “serum levels of biochemical markers and biliary flow” value (PCK rats; at the time of sacrifice, treated vs control, Table 5) was “no difference” and the “liver cystogenesis (area of intrahepatic biliary cysts)” value (PCK rats; oral 0.2856 mg/kg/day, 8 weeks, vs control PCK rats, p<0.05, FIG. 24) was “reduction”. For the same compound, the ALT (PCK rats; [4]) was 138.22 ± 2.66 U/L, the AST (PCK rats; [4]) was 755.56 ± 24.76 U/L and the Albumin (PCK rats; [4]) was 13.78 ± 0.59 g/L. For the same compound, the Alkaline phosphatase (PCK rats; [4]) was 57.00 ± 5.01 U/L, the Cholesterol (PCK rats; [4]) was 76.56 ± 3.93 mg/dL and the Creatinine (PCK rats; [4]) was 0.36 ± 0.02 mg/dL. For the same compound, the Glucose (PCK rats; [4]) was 137.89 ± 7.25 mg/dL, the HDL (PCK rats; [4]) was 31.11 ± 3.06 mg/dL and the LDH (PCK rats; [4]) was 15192.33 ± 356.84 U/L. It also gave an LDL (PCK rats; [4]) of 33.38 ± 1.61 mg/dL, a Total bilirubin (PCK rats; [4]) of 0.16 ± 0.05 mg/dL and a Total protein (PCK rats; [4]) of 3.11 ± 0.12 g/dL. The Triglycerides (PCK rats; [4]) was 60.33 ± 3.97 mg/dL, the Urea (PCK rats; [4]) was 20.33 ± 0.78 mg/dL and the “toxicity at dose used in clinical trials” value [2] was “does not cause toxicity”.
